Results published in article PMC7440915, “Discovery of surrogate agonists for visceral fat Treg cells that modulate metabolic indices in vivo” (eLife, 2020).
Entries after “also recorded” stand apart in the source; their conditions may differ. Where no end group is shown, it is not given here.

System: vTreg53 Treg cells
Experiment: RNA-seq of transferred clonotype^+ Treg cells after immunization
Assay type: in vivo, mouse
From the text: Figure 5. Transcriptional analyses of vTreg53 Treg cells stimulated by Fat1562 in vivo. (A–C) CD45.2^+ vTreg53 Treg cells were transferred i.v. into CD45.1^+ B6 mice. 6 weeks later, the recipient mice were immunized with CFA alone or CFA/Fat1562 s.c., and one week later, boosted with IFA alone or IFA/Fat1562 i.p. CD45.2^+ clonotype^+ Treg cells were sorted from Spl/LNs or VAT of the recipient mice one week later for RNA-Seq. (A) Volcano plot comparing gene expression of transferred clonotype^+ Treg cells in the VAT and Spl/LNs of recipient mice immunized with adjuvant alone (left) or with adjuvant/Fat1562 (right). VAT-Treg signature genes are highlighted in red (induced) or blue (repressed). The number of genes from each signature preferentially expressed by one or the other population are shown at the top. (B) GSEA analysis of top KEGG pathways (p<0.05) that are enriched in cells activated by adjuvant/Fat1562 compared with adjuvant alone in VAT (left) or Spl/LN (right). NES, normalized enrichment score. FDR, false discovery rate. (C) Normalized reads of Pparg transcript in CD45.2^+ clonotype^+ Treg cells sorted from mice immunized with adjuvant alone or adjuvant/Fat1562. Data are mean ± SD. (D) Volcano plot comparing gene expression of transferred clonotype^+ Treg cells in mice immunized with adjuvant/Fat1562 and adjuvant alone in the VAT (left) and spleen (right). Representative transcripts are highlighted.
6–8 week-old B6.CD45.1^+ mice were transferred with Tg^+ Treg cells from Spl/LNs, and six weeks later were primed with 200 μg CFA/peptides s.c. and boosted with 100 μg IFA/peptides i.p. as described in the ‘Treg transfer and peptide immunization’ section. Biological replicates (n ≥ 2) of 1000 clonotype^+ CD45.2^+ Treg cells from the Spl/LNs or VAT of recipient mice were double-sorted by Moflo directly into 5ɥl lysis buffer (TCL Buffer (Qiagen) with 1% 2-Mercaptoethanol), Smart-seq2 libraries were prepared as previously described ([Picelli et al., 2014]) with slight modifications. Briefly, total RNA was captured and purified on RNAClean XP beads (Beckman Coulter). Polyadenylated mRNA was then selected using an anchored oligo(dT) primer (5′–[…]30VN-3) and converted to cDNA via reverse transcription. First-strand cDNA was subjected to limited PCR amplification followed by Tn5 transposon-based fragmentation using the Nextera XT DNA Library Preparation Kit (Illumina). Samples were then PCR amplified for 18 cycles using barcoded primers such that each sample carried a specific combination of eight-base Illumina P5 and P7 barcodes and were pooled together prior to Smart sequencing. Smart-seq paired-end sequencing was performed on an Illumina NextSeq500 using 2 × 38 bp reads with no further trimming. Transcripts were quantified by the Broad Technology Labs computational pipeline with Cuffquant version 2.2.1 ([Trapnell et al., 2012]). Normalized reads were further filtered by minimal expression (>10) and coefficient of variation (<0.7), and then analyzed by Multiplot Studio in the GenePattern software package. Pathway enrichment analysis was done using GSEA.

TMYKNPRPMAATG [Fat1562]
Pparg mRNA levels in Spl/LN relative to VAT (Spl/LN vs Fat1562-stimulated VAT Treg cells): substantially lower | Pparg mRNA levels (Treg cells stimulated by Fat1562 in vivo (Spl/LN)): significantly increased; also recorded: increase in Pparg mRNA levels | Lag3 and Tigit expression (VAT, adjuvant/Fat1562 vs adjuvant alone): upregulated | pathway enrichment in VAT Treg cells, GSEA (VAT, adjuvant/Fat1562 vs adjuvant alone: cell division and glycolysis): significant enrichment in pathways and transcripts related to cell division (E2F targets, G2M checkpoint, MYC targets, Mitotic spindle) and glycolysis | VAT-Treg signature gene expression (clonotype^+ VAT Treg cells, adjuvant/Fat1562): preserved the typical VAT-Treg characteristics; also recorded: maintained the typical VAT-Treg signature | cholesterol homeostasis genes (lymphoid organs, adjuvant/Fat1562 vs adjuvant alone (e.g. Pparg, Nfil3, Srebf2)): enrichment of genes involved in cholesterol homeostasis | inflammatory cytokine response genes (lymphoid organs, adjuvant/Fat1562 vs adjuvant alone, IFNα, IFNγ, TNFα): increased expression of genes associated with responses to inflammatory cytokines (IFNα, IFNγ, and TNFα)
